The source of these data is PubChem BioAssay (NCI).

“And” between values parts separate entries of the source, which are not always exact repeats. Equal entries are not always repeated.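 Five concentrations, 48 hours, 96-well plates. GI50: concentration for 50% inhibition of growth. TGI is the concentration that stops growth completely.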

Common to all, as to experiment: DTP human tumour cell line panel, 48 h
Experiment [1] concerns UACC-62 melanoma.
The subject of experiment [2] is OVCAR-4 ovarian.
The subject of experiment [3] is DU-145 prostate.
Experiment [4] concerns SNB-19 CNS.
The test system of experiment [5] is LOX IMVI melanoma.
For experiment [6], the system named is HOP-62 NSCLC.
Experiment [7] has as its system MDA-MB-231 breast.
For experiment [8], the system named is NCI-H522 lung.
Experiment [9] concerns OVCAR-3 ovarian.
The test system of experiment [10] is NCI-H460 lung.

As usually defined, the GI50 is the concentration that inhibits growth by half. As usually defined, the TGI is the concentration at which net growth stops. The low end stands for greater sensitivity of the cells, the high end for lower sensitivity of the cells. Turning to `C=C(C)[C@@H]1CC=C(CO)CC1`, the GI50 in experiment [1], in [2], in [4], in experiment [5], in experiment [6] and in [8] was over 10 µM in each case. Also, the GI50 in experiment [9] and in experiment [10] was over 10 µM in each case. The TGI was > 10 µM and 964 µM in [1]; > 10 µM and 1130 µM in [2]; over 10 µM in experiment [3]; > 10 µM and 1010 µM in experiment [4]; > 10 µM and 923 µM in experiment [5]; > 10 µM and 961 µM in experiment [6]. Further, the TGI in experiment [7] was over 10 µM; in experiment [8], > 10 µM and 1150 µM; in experiment [9], > 10 µM and 736 µM; in experiment [10] it was > 10 µM and 1260 µM.

In the case of `OCC1OC(n2ccc3c2ncn2ncnc32)C(O)C1O` (stereo not drawn), the GI50 is 8.42 µM in experiment [1]; 5.1 µM in [2]; 0.379 µM in [3]; 4.7 µM in experiment [4]; 0.29 µM in experiment [5]; 0.595 µM in [6]. The GI50 was 1.52 µM in experiment [7], 90.4 µM in [8], 0.552 µM in experiment [9] and 2.25 µM in experiment [10]. In addition, the TGI in experiment [1] is over 100 µM; in experiment [2], 63.1 µM; in experiment [3] it was over 100 µM; in experiment [4], over 100 µM; in experiment [5] it was 1.76 µM; in [6], 33.1 µM. For the same compound, the TGI in experiment [7], in experiment [8], in [9] and in experiment [10] was over 100 µM in each case.

Turning to `O=C1C(Cl)=C(N/N=c2/[nH][nH]/c(=N/NC3=C(Cl)C(=O)c4ccccc4C3=O)c3ccccc23)C(=O)c2ccccc21`, the GI50 is 12 µM in experiment [2]; 17.8 µM in [3]; 14.6 µM in experiment [4]; 15.3 µM in experiment [5]; 10.2 µM in [6]; 12 µM in experiment [7]. For the same compound, the results for the GI50 in experiment [8], in [9] and in experiment [10] were 2.78 µM, 15.6 µM and 19.7 µM, respectively. Moreover, the TGI in experiment [2] was 28.5 µM; in experiment [3] it was 33.6 µM; in [4], 31.1 µM; in experiment [5], 29.9 µM; in experiment [6], 23.2 µM; in [7], 28.2 µM. The figures for the TGI in [8], in experiment [9] and in experiment [10] were 10.9 µM, 36.4 µM and 49.5 µM, respectively.

Turning to `COc1cc2nc(Cl)nc(Nc3cccc(C(=O)/C=C/c4ccccc4)c3)c2cc1OC`, the GI50 in experiment [1] is 2.55 µM; in experiment [2], 5.5 µM; in experiment [3] it was over 48.8 µM; in experiment [4], 2.96 µM; in [6], 3.71 µM; in experiment [7] it was 6.4 µM. In addition, the results for the GI50 in [8], in [9] and in [10] were 3.09 µM, 3.75 µM and 4.2 µM, respectively. In addition, the TGI in experiment [1] was 10.1 µM; in [2], 33.3 µM; in [3], over 100 µM; in [4] it was over 31.8 µM; in [6] it was 31.7 µM; in experiment [7], over 92.4 µM. Moreover, the TGI in [8] was 52.6 µM; in experiment [9], 31.3 µM; in experiment [10], over 100 µM.

For `COc1cc2cc(Oc3ccc(NC(=O)Nc4ccc(Cl)c(C(F)(F)F)c4)cc3)c(C)nc2cc1OCCN1CCCCC1`, the GI50 in experiment [1] is 1.69 µM; in experiment [2] it was 1.46 µM; in [3], 1.53 µM; in experiment [4] it was 1.68 µM; in [7], 1.39 µM; in experiment [8] it was 1.59 µM. For the same compound, the GI50 was 1.6 µM in [9] and 1.85 µM in experiment [10]. Besides, the TGI in experiment [1] was found to be 3.08 µM; in experiment [2], 3.29 µM; in [3] it was 2.87 µM; in experiment [4] it was 3.19 µM; in [7], 2.75 µM; in [8] it was 3.26 µM. Also, the concentration for total growth inhibition (TGI) in experiment [9] worked out at 3.03 µM; in experiment [10], 3.47 µM.

On to `CC12CCC=CC1CCC1C2CCC2(C)C(c3ccc(=O)oc3)CCC12O` (stereo not drawn), for which the GI50 was 0.221 µM in experiment [1]; 0.167 µM in [2]; 0.0553 µM in experiment [3]; 0.215 µM in experiment [4]; 0.033 µM in experiment [5]; 0.0511 µM in [6]. For the same compound, the GI50 in [7] is 0.365 µM; in [8], 0.0398 µM; in experiment [9], 0.0614 µM. In addition, the TGI in [1] came to 0.723 µM; in [2] it was 0.641 µM; in [3], 0.165 µM; in experiment [4], 1.23 µM; in [5], 0.141 µM; in experiment [6], 0.21 µM. For the same compound, the figures for the TGI in experiment [7], in [8] and in experiment [9] were 2.57 µM, 0.283 µM and 0.258 µM, respectively.
